In patent US11696938B2, “Human cancer cell metastasis inhibitory agent and human cancer cell determination agent” (priority 2017, dated 2023):

Assays:
[1] = system: PC-3 cells; experiment: Cell binding experiment; set-up: species or system human; conditions: 5 μM rhodamine-labeled; calcium absent; control hDC-p1
From the text: The PC-3 cell line (which may be referred to as “PC-3 cells” or, simply, “cells”), which is a commonly used cell line, was used. PC-3 cells were obtained from RIKEN BioResource Center (Cell No. RCB2145), and cultured in DMEM medium (+10% FBS) according to a conventional method. This line is a human prostate cancer-derived cell line.

[2] = system: PC-3 cells; experiment: Cell invasion assay; assay type: cell-based, human; conditions: 10 μM; control hDC-p1 10 μM
Description: (§1) Cell invasion was analyzed using a BD BioCoat (registered trademark) Matrigel Invasion Chamber (Becton, Dickinson and Company). First, a certain amount of cells (about 1×10^5 cells/well) were treated with 2 μM, 8 μM, or 20 μM mouse dicalcin at room temperature for 20 minutes.
(§2) The treated cells were washed by centrifugation treatment, and then plated in the upper chamber of a transwell preliminarily coated with Matrigel, followed by performing culture using DMEM (+10% FBS) as a medium.
(§3) About 16 hours later, the invading cells that had migrated into the lower chamber were fixed using 4% paraformaldehyde/phosphate buffer at room temperature for 10 minutes, and then stained with crystal violet, followed by excision of the membrane, embedding on a slide, and counting of the cell number. The invasion index was calculated as {(number of stained cells)/(number of plated cells)}×100(%), and normalized by the later-mentioned result of Experimental Example 2-2, which was taken as 100(%).
An analysis was carried out in the same manner as in Experimental Example 2-1 except that PC-3 cells were used as the cells, and that 10 μM hDC-p6 was used as a partial peptide. Statistical analysis was carried out by unpaired Student t-test in order to analyze a significant difference.

[3] = system: human cancer tissues; experiment: Cell binding experiment on paraffin sections of human cancer tissues
Description: After washing, analysis was carried out using a fluorescence microscope (Olympus Corporation).
An experiment was carried out in the same manner as in Experimental Example 15-1 except that a paraffin section derived from a human prostate cancer tissue (US Biomax Inc.) was used as a target.
An experiment was carried out in the same manner as in Experimental Example 15-1 except that a paraffin section derived from a human colorectal (colon) cancer tissue (US Biomax Inc.) was used as a target. The white dotted line indicates the border between the tumor area and the normal area.
An experiment was carried out in the same manner as in Experimental Example 15-1 except that a paraffin section derived from a human colorectal (rectal) cancer tissue (US Biomax Inc.) was used as a target. The white dotted line indicates the border between the tumor area and the normal area.
An experiment was carried out in the same manner as in Experimental Example 15-1 except that a paraffin section derived from a human breast cancer (breast ductal carcinoma) tissue (US Biomax Inc.) was used as a target.
An experiment was carried out in the same manner as in Experimental Example 15-1 except that a paraffin section derived from a human breast cancer (invasive lobular carcinoma) tissue (US Biomax Inc.) was used as a target. […]

[4] = system: OVCAR cells; experiment: Cell binding experiment; set-up: species or system human; conditions: 5 μM rhodamine-labeled; calcium absent; control p1
[5] = system: OVCAR cells; experiment: Cell invasion assay; assay type: cell-based, human; conditions: 2 or 10 μM; control peptide p1 10 μM
Description: as §1, §2, §3
The OVCAR-3 cell line (which may be referred to as “OVCAR cells” or, simply, “cells”), which is a commonly used cell line, was used. OVCAR cells were obtained from RIKEN BioResource Center (Cell No. RCB2135), and cultured in DMEM medium (+10% FBS) according to a conventional method. This line is a human ovarian cancer (adenocarcinoma)-derived cell line.
An analysis was carried out in the same manner as in Experimental Example 2-1 except that OVCAR cells were used as the cells, and that 8 μM or 20 μM human dicalcin was used instead of mouse dicalcin.
An analysis was carried out in the same manner as in Experimental Example 9-1 except that 20 μM BSA was used instead of human dicalcin.
An analysis was carried out in the same manner as in Experimental Example 2-1 except that OVCAR cells were used as the cells, and that 2 μM or 10 μM hDC-p6 was used as a partial peptide. Statistical analysis was carried out by unpaired Student t-test in order to analyze a significant difference.

[6] = system: OV2944 cells; experiment: Cell invasion assay (Matrigel Invasion Chamber); assay type: cell-based, mouse
Description: as §1, §2
About 16 hours later, the invading cells that had migrated into the lower chamber were fixed using 4% paraformaldehyde/phosphate buffer at room temperature for 10 minutes, and then stained with crystal violet, followed by excision of the membrane, embedding on a slide, and counting of the cell number.

[7] = system: OV2944 cells; experiment: Cell binding experiment (fluorescently labeled protein/peptide, confocal microscope); set-up: species or system mouse
Description: The OV2944-HM-1 cell line (which may be referred to as “OV2944 cells” or, simply, “cells”), which is a commonly used cell line, was used. OV2944 cells were obtained from RIKEN BioResource Center (Cell No. RCB1483), and cultured in DMEM medium (+10% FBS) according to a conventional method.
Cultured cells were fixed on a glass plate (4% paraformaldehyde/phosphate buffer, room temperature, 10 minutes), and treated with sheep serum. Thereafter, mouse dicalcin (5 μM) fluorescently labeled with tetramethylrhodamine (TMR) was reacted with the cells in the presence of 1 mM CaCl2 (4° C., overnight). After washing with TBS buffer, analysis was carried out using a confocal microscope (Carl Zeiss). Further, cell nuclei were stained with DAPI.
An experiment was carried out in the same manner as in Experimental Example 1-1 except that the reaction was carried out in the presence of 1 mM EGTA (which may be referred to as “in the absence of calcium”).
An experiment was carried out in the same manner as in Experimental Example 1-1 except that immunostaining was carried out using an anti-mouse dicalcin antibody (Catalog No. MAB5167, R&D Systems) as a primary antibody, and an Alexa Fluor (registered trademark) 594-labeled anti-rat IgG antibody (Catalog No. A11007, Invitrogen) as a secondary antibody.
An experiment was carried out in the same manner as in Experimental Example 1-1 except that each of partial peptides p1 to p7 (5 μM) fluorescently labeled with rhodamine was used.

[8] = system: OV2944 cells; experiment: Analysis of survival after cell transfer (Kaplan Meier); assay type: in vivo, mouse
Description: (§4) The purified OV2944 cells expressing the fluorescent protein tdTomato were transferred into the abdominal cavity of mice (B6C3F1 strain, 9 weeks old, female, CLEA Japan, Inc.) (1×10^5 cells/mouse). […] On Day 21, the abdominal organs were removed, and OV2944 cells expressing the fluorescent protein tdTomato in the liver were observed using a fluorescence stereomicroscope OV110 (Olympus Corporation).
Intraperitoneal injection was carried out in the same manner as in Experimental Example 13-1 and Experimental Example 13-2, and survival analysis was carried out thereafter to provide Experimental Example 14-1 and Experimental Example 14-2. For the survival curve according to the Kaplan Meier method, a significant difference was analyzed by log-rank test.

[9] = Glycolipid sugar chain array binding experiment; conditions: 5 μM fluorescently labeled, 4° C. overnight
[10] = system: OV2944 cells; experiment: Cell migration assay; assay type: cell-based, mouse; conditions: 5 μM; versus p1 and no peptide
Description: The plasmid vector pDsRed2-C1 (Clontech), which expresses a fluorescent protein (DsRed2), was transfected into cells. […] The observation was carried out for 12 to 37 cells. Statistical analysis was carried out by unpaired Student t-test in order to analyze a significant difference.
An experiment was carried out in the same manner as in Experimental Example 8-1 except that no partial peptide was added.

[11] = system: Erk1/2; experiment: Suppression of Erk1/2 signaling (Western blotting, pErk/Erk); assay type: cell-based, mouse
From the text: The OV2944 cells were extracted and sonicated, and then analyzed for the activity of Erk1/2 by Western blotting. An antibody (Cell Signaling) against Erk1/2 protein in the phosphorylated state (that is, the activated state) (pErk1/2), or an antibody (Santa Cruz) against total Erk1/2 protein including the protein in the phosphorylated state and the protein in the dephosphorylated state (Erk1/2), was used therefor. The ratio between pErk1/2 and Erk1/2 (pErk/Erk) in the Western blot image was calculated, and the data were normalized by taking the value at time 0 as 1.

[12] = system: GM1b on the plasma membrane of OV2944 cells; experiment: GM1b inhibition assay in relation to binding of partial peptide p6 to OV2944 cells; set-up: species or system mouse; conditions: 5 μM TMR-labeled p6
Description: Cultured OV2944 cells were fixed on a glass plate (4% paraformaldehyde/phosphate buffer, room temperature, 10 minutes), and treated with sheep serum. […] After washing, analysis was carried out using a confocal microscope (Carl Zeiss).
An experiment was carried out in the same manner as in Experimental Example 18-1 except that GM1b was absent.
Further, an experiment was carried out in the same manner as in Experimental Example 18-1 and Experimental Example 18-2 for cases where GM1b was used alone at a concentration of 0, 10, or 100 μM, where GT1c was used alone at a concentration of 100 μM, and where GM1b and GT1c were used in combination at a concentration of 100 μM each.

[13] = system: OV2944 cells expressing the fluorescent protein tdTomato; experiment: Observation of metastasis to liver after intraperitoneal cell transfer; assay type: in vivo, mouse; conditions: 3 nmoles/two days, Day 21, versus control peptide p1
Description: The plasmid vector ptdTomato-C1 (Clontech), which expresses the fluorescent protein tdTomato, was transfected into OV2944 cells, and, 24 to 48 hours later, the cells were suspended in phosphate buffer. Using a flow cytometer (FACS Aria, BD Biosciences), the OV2944 cells expressing the fluorescent protein tdTomato shown in FIG. 13A to FIG. 13C were purified.
as §4
FIG. 15-1B focuses on cell colonies. […] The number of colonies was counted, and a significant difference was analyzed by unpaired Student t-test.

Row | Substance | binding to the cells (fluorescence intensity) [1] | cell invasion (invasion index) [2] | binding to cancer cells of tissue sections ([3]; 5 μM, 4° C. overnight, ovarian, prostate, colon, rectal, breast (4 types), renal, lung, glioma) | determination of tumor area by fluorescence positive reaction ([3]; colon cancer section, blocking and peptide reaction together, 37° C., 1 hour) | binding to the cells (fluorescence intensity) [4] | cell invasion (invasion index) [5] | cell invasion, ranking of suppression ([6]; 8 μM each, versus 10 μM BSA) | cell invasion, concentration dependence ([6]; 0.2, 0.8, 2, 8, 20 μM) | cell-binding ability (fluorescence intensity) ([7]; 5 μM rhodamine-labeled partial peptides, ranking) | site of binding on cells ([7]; 5 μM, CD44 as plasma membrane control) | increase in average number of days of survival ([8]; Experimental Example 14-1 relative to 14-2 (p1)) | average number of days of survival ([8]; intraperitoneal, 3 nmoles/two days) | survival rate of mice ([8]; intraperitoneal, 3 nmoles/two days, versus control peptide p1, log-rank test) | target molecule candidate by binding to glycolipid sugar chains [9] | cell migration (migration distance) [10] | Erk1/2 activity (pErk/Erk) ([11]; 5 μM p6 alone (absence of GM1b), 0-30 minutes) | Erk1/2 activity (pErk/Erk) with GM1b present ([11]; p6 and GM1b present) | binding to OV2944 cell / plasma membrane in presence of GM1b ([12]; GM1b in the medium (10, 100 μM)) | binding ability to OV2944 cells in presence of GT1c ([12]; GT1c 100 μM) | number of colonies in the liver [13]
1 | hDC-p6: partial peptide of human dicalcin, SEQ ID NO: 7, QLDFSEFLNLI (listed as Homo sapiens) | binds to the cells | suppresses cell invasion | binds to cancer cells of any of these tissues | tumor area could be determined | binds to the cells | suppresses cell invasion in a concentration-dependent manner |  |  |  |  |  |  |  |  |  |  |  |  |  | 
2 | partial peptide of mouse dicalcin, SEQ ID NO: 17, QLDFQEFLNLI (listed as Mus musculus) [p6] |  |  |  |  |  |  | suppresses cell invasion at the highest level | suppressed cell invasion in a concentration-dependent manner | highest cell-binding ability | binds to the plasma membranes of cells | 21% | 38.5 days | significantly suppresses a decrease in the survival rate | GM1b ganglioside was suggested | suppresses migration of the cells | suppresses the Erk1/2 activity | disappearance of the Erk-suppressing action | remarkably decreased | did not change | significantly smaller
